Data as given in patent US6649797B2, “Compounds and methods of use to treat infectious diseases” (The Picower Institute for Medical Research, priority 1996, dated 2003).

Key:
[1] = Toxicity in mice, median lethal dose by intraperitoneal injection; type: in vivo, mouse
Protocol: The doses of compounds of the invention found to be lethal to 50% of the mice (LD50) were determined by intraperitoneal injection of groups of five animals with increasing doses of each compound. CNI-0294 was administered from 0, 2, 10, 20, 40, 80, 160, 320, 640, 1280 mg/kg in 0.5 ml of water/HCl; CNI-1594 at 0, 2.4, 5, 10, 20, 40, 80 mg/kg in 0.5 ml of water/HCl; CNI-1794 at 0, 20, 50, 80 mg/kg in 0.5 ml of water/HCl; and CNI-1894 at 0, 10, 20, 40, 80, 240, 480, 960 mg/kg in water/HCl. […] The percentage of animals in each group which died were utilized to calculate the LD50 by non-linear curve fitting with the Enzfit software (Elsevier Bioscience; Cambridge, UK) programmed with the Chou equation (Chou 1976, J Theor Biol 39:253-276)).

[2] = target: T1, pseudovirion-derived nucleoprotein complexes / karyopherin α (Human immunodeficiency virus type 1 group M subtype B, UniProt P04591); assay: Binding of pseudovirion-derived nucleoprotein complexes to GST-karyopherin α; type: biochemical, HIV-1; conditions: various concentrations
T1 construct: composed exclusively of Gag (MA, CA, NC, p6) and Env (gp41 and gp120) proteins; endogenous in cells; host or cells: cytoplasmic lysate of H9 cells inoculated with HIV-like gag-env pseudovirions (Haffar et al. 1990)
Protocol: Cytoplasmic lysates of H9 cells infected with HIV-1RF (upper panel) or HIV-like pseudovirions (bottom panel) were treated for 2 hours with various concentrations of CNI-H0294, and were then mixed with GST-karyopherin α immobilized on glutathione Sepharose beads. HIV-1 DNA or RNA that co-precipitated with karyopherin α was quantified as in A and B.
H9 cells were infected with HIV-1 or HIV-like pseudovirions (Haffar, et al., 1990, J. Virol., 64:2653-2659) at a multiplicity adjusted according to p24 content (50 ng p24 per 10^6 cells) The MA NLS^− virus contains substitutions of isoleucine residues for lysines in positions 26 and 27 of MA in an NLHX backbone (Westervelt., et al., 1992, J. Virol. 66:2577-2582), thus inactivating the NLS. The Vpr^− virus has the initiating ATG of the vpr gene changed to GTG, thus abolishing expression of this gene. The ΔMA NLS pseudovirions have leucine substituting for lysine in position 28 of MA. This mutation abrogates nuclear translocation of HIV-1 gag RNA in growth-arrested H9 cells infected with pseudovirions. […]
Cytoplasmic extracts prepared from HIV-1-or pseudovirion-infected H9 cells were adjusted to 0.14 M NaCl, 0.1% Tween 20 and precleared with glutathione-Sepharose beads for 30 min. at room temperature. Karyopherin α was expressed as a fusion protein with glutathione S-transferase (GST) which can bind glutathione beads in solution. […]

[3] = test system: nucleoplasmin-coated gold particles; assay: Nuclear import of nucleoplasmin-coated gold particles
[4] = test system: monocyte and T lymphocyte cultures; assay: Cytotoxicity in monocyte and T lymphocyte cultures in vitro; type: cell-based
[5] = In vitro metabolism with mouse liver post-mitochondrial supernatant and NADPH; type: in vitro ADME
Protocol: Several female ND4 Swiss Webster mice were euthanized by carbon dioxide inhalation and the livers excised and rinsed with ice cold phosphate buffered saline (pH 7.4). The livers were minced, gently homogenized in 50 mM phosphate buffer (pH 7.4) with a Dounce homogenizer, and centrifuged at 9600× g for 20 min. The post-mitochondrial supernatant was kept, glycerol added to 20%, and frozen at −70° C in 1.0 ml aliquots until used. For each incubation, 1.0 ml of a 1.0 mg/ml drug solution was added to 3.0 ml of 50 mM phosphate buffer (pH 7.4), 1.0 ml of 2 mg/ml NADPH in 50 mM phosphate (pH 7.4), and 1.0 ml of the post-mitochondrial supernatant. Five hundred μl of each incubate was then immediately transferred to an ice-cold tube to provide the zero-time sample, and addition 500 μl aliquots removed to ice-cold tubes at 8, 15, 30, and 60 min. The samples were then extracted, and analyzed by HPLC as described in section 7.1. Control incubations were also performed where drug or post-10 mitochondrial supernatant was omitted. […] Peaks in the CNI compound incubations which increased over time, and were not present in control samples lacking the enzyme preparation were treated as putative metabolites.

Plasmodium berghei NYU-2 = assay: Four day suppression test in Plasmodium berghei infected mice; type: in vivo; conditions: 50 mg/kg i.p. once daily for four days, P≦0.01
Protocol: FIG. 9. The activity of CNI-0294 against Plasmodium berghei infected mice. Female ND4 Swiss Webster mice were infected with infected erythrocytes and then treated once daily, for four days, with 50 mg/kg CNI-0294, or with distilled water. Six hours after the last dose, thin blood smears were made from each of the animals and the parasitemia was determined. The bars represent the median parasitemia (n=4 for controls and n=5 for treated).
The antimalarial activity of CNI-0294 in vivo was assessed by infecting female ND4 Swiss Webster mice with 100 μl of Plasmodium berghei NYU-2 infected mouse erythrocytes (50% parasitemia) by intraperitoneal injection. The animals were subsequently injected intraperitoneally once per day on days 1-4 of the infection with 0.5 ml water or 0.5 ml of 50 mg/kg CNI-0294 in water. Four hours after the final injection, small blood samples were taken from the tail, and thin smears stained with Dif-Quick (Baxter, Miami, Fla.). The parasitemia of control and treated animals was enumerated by inspection of at least 1000 erythrocytes in each animal.

## CC(=O)c1cc(Nc2cc(C)[n+](C)c(N)n2)cc(C(C)=O)c1 [CNI-0294, 2-Amino-4-(3,5-diacetylphenyl)amino-1,6-dimethylpyrimidinium chloride]
[1]
  visible signs of toxicity: no overt signs of toxicity detectable at doses approaching the LD50
[1]; listed as CNI-H0294
  LD50 ± standard deviation: 590 mg/kg
[1]; mouse, in vivo, ip, read-out: LD50 ± standard deviation
  LD50: 588 mg/kg
[2]
  inhibition of binding of karyopherin α to pseudovirion-derived nucleoprotein complexes: did not inhibit
[3]
  block of nuclear import of nucleoplasmin-coated gold particles: did not block
[4]
  50% toxic dose: > 1 mM
[5]
  metabolites produced: three minor and one major metabolite
[5]; 60 min incubation
  metabolic conversion (drug altered, as judged by peak area): 43.5%
Plasmodium berghei NYU-2
  lowering of parasitemia: 10 fold
